Reference: BigSolDB 2.1

O=c1cc(-c2ccc(O)c(O)c2)oc2cc(O)cc(O)c12
solubility (mole fraction)
Conditions	298.2 K	303.2 K	308.2 K	313.2 K	318.2 K
in DMSO	0.0515	0.0564	0.0615	0.0665	0.0715
in ethanol	0.00188	0.00209	0.00241	0.00273	0.00308
in ethyl acetate	0.00261	0.00313	0.00368	0.00438	0.00511
in ethylene glycol	0.0013	0.00158	0.0019	0.00229	0.00268
in isopropanol	0.00251	0.00278	0.00316	0.00366	0.00414
in methanol	0.00047	0.000537	0.000638	0.000727	0.000816
in n-butanol	0.00335	0.00369	0.00415	0.00477	0.00536
in propylene glycol	0.00212	0.00249	0.00289	0.00336	0.00389
in sec-butanol	0.0035	0.00381	0.00435	0.00489	0.00553
in transcutol	0.0309	0.0331	0.0354	0.0378	0.0401
in water	1.75e-06	2.24e-06	2.83e-06	3.49e-06	4.17e-06

Conditions	solubility (mole fraction)
in PEG-400, 298.2 K	0.1
in PEG-400, 303.2 K	0.106
in PEG-400, 308.2 K	0.113
in PEG-400, 313.2 K	0.119
in PEG-400, 318.2 K	0.127
